# Results from US20240306646A1, “BROAD SPECTRUM PATHOGEN CONTROL IN PLANTS” (APHEA. BIO NV, priority 2021, published 2024).
# Legend:
# Assay type in all cases: cell-based
# Fusarium graminearum = conditions: in vitro
# Zymoseptoria tritici = test system: Zymoseptoria tritici
# Puccinia striiformis = experiment: In vitro antifungal screening of strain extracts and fractions
substance,measurement,setting,value
Takanawaene C,"growth inhibition, Fusarium graminearum",Fusarium graminearum,100% growth
same,"growth inhibition, Zymospetoria tritici",Zymoseptoria tritici,9% growth
same,"growth inhibition, Puccinia striiformis",Puccinia striiformis,100% inhibition
